Patent US20230295159A1, “ATX INHIBITOR, AND PREPARATION METHOD THEREFOR AND USE THEREOF” (SUZHOU ARK BIOPHARMACEUTICAL CO., LTD., priority 2020, published 2023)
pIC50: −log10 of the molar value. Like-named read-outs stand apart in the source and are kept apart here. Each block holds one compound with its values, some of them ahead of it.

Legend:
ATX enzyme = ATX enzyme (Homo sapiens (Human), UniProt Q13822); assay: ATX enzyme activity inhibition assay; type: biochemical; conditions: 16:0-LPC substrate, Amplex UltraRed fluorescence
Protocol: The tested compounds were dissolved with dimethyl sulfoxide (DMSO) to prepare 20 mM of stock solutions, the stock solutions were subjected to 4-fold gradient dilutions with DMSO, with the initial concentration of 20 µM and a total of 8 concentration gradients. 20 nL of diluted compound was transferred to a 384-well plate using Echo 550 and 5 µL of ATX enzyme solution formulated with 4 × Tris-HCl reaction buffer to the well, then the 384-well plate was centrifuged at 1000 rpm for 1 min and […] pre-incubated at room temperature for 15 min. Subsequently, 5 µL of 16:0-LPC foumulated with the above 4 × reaction buffer and 10 µL of assay solution containng 2 × Amplex UltraRed reagent, choline oxidase and horseradish peroxidase (HRP) foumulated with the same reaction buffer were added to each well, then the 384-well plate was centrifugated at 1000 rpm for 1 min. The fluorescence signals were read at an excitation wavelength of 530 nm and an emission wavelength of 590 nm by Synergy 2 microplate reader. The inhibition rate of the compound against enzyme reaction was calculated according to the fluorescence intensity ratio, and IC50 of the compound was analysed and calculated by GraphPad Prism 5 software.

[1] = Rat pharmacokinetic study; type: in vivo, SD rat; conditions: for half-life: read-out: t½ (converted)
Protocol: SD rat pharmacokinetic study was performed on several compounds in Examples of the present disclosure through a single intravenous injection (IV, at a dose of 2 mg/kg) and a single oral administration (PO, at a dose of 10 mg/kg), and blood samples were taken before administration and 5 min, 15 min, 30 min, 1 h, 2 h, 4 h, 8 h, 12 h and 24 h after administration, respectively, to determine the plasma concentration of the compound for assay. The pharmacokinetic data of control compound and the compounds in Examples 17, 26, 28 and 29 of the present disclosure in rat plasma are shown in Tables 4-8.

[2] = tested on: Chinese hamster ovary cells (CHO-WBL); assay: In vitro micronucleus assay with Chinese hamster ovary cells
Protocol: In the major micronucleus assay, CHO-WBL cells were exposed to at least 3 concentrations of the test object, while vehicle control group and positive control group were set up, with 2 replicated wells for each dose group. In inactivated test system, the administration lasted for 3 and 24 hours, and in S9 activated test system, the exposure to the test object lasted for 3 hours.
When choosing the highest dose for micronucleus frequency assay, the cytotoxicity of dose group of the test object should not substantially exceed 50% of that of the corresponding vehicle control group.
On the premise that the test is valid, the test results are evaluated according to the following criteria:
If the test object simutaneously meets the following criteria, it can be considered as positive:
A significant increase in micronucleus frequency is observed in one or more concentration groups.
If none of the above three points is met, the test object can be considered as negative.

[3] = 3-hour administration with metabolic activation, 5 µg/ml

pIC50 (ATX enzyme): 7.96
Compound: CCN(c1nc(-c2ccc(F)cc2)c(C#N)s1)c1c2nc(-c3cnc(N4CC(CO)C4)nc3)ccc2nn1CC [Example 24, 2-(ethyl(2-ethyl-5-(2-(3-(hydroxymethyl)azetidin-1-yl)pyrimidin-5-yl)-2H-pyrazolo[4,3-b]pyridin-3-yl)amino)-4-(4-fluorophenyl)thiazole-5-carbonitrile]

pIC50 (ATX enzyme): 7.89
Compound: CCc1nc2ccc(-c3cnc(CC(=O)N4CC[C@@H](O)C4)cn3)cn2c1N(C)c1nc(-c2ccc(F)cc2)c(C#N)s1 [Example 13, (R)-2-((2-ethyl-6-(5-(2-(3-hydroxypyrrolidin-1-yl)-2-oxoethyl)pyrazin-2-yl)imidazo[1,2-a]pyridin-3-yl)(methyl)amino)-4-(4-fluorophenyl)thiazole-5-carbonitrile]

pIC50 (ATX enzyme): 7.92
Compound: CCN(c1nc(-c2ccc(F)cc2)c(C#N)s1)c1c2nc(-c3cnc(N4CC(OC(C)=O)C4)nc3)ccc2nn1CC [Example 25, 1-(5-(3-((5-cyano-4-(4-fluorophenyl)thiazol-2-yl)(ethyl)amino)-2-ethyl-2H-pyrazolo[4,3-b]pyridin-5-yl)pyrimidin-2-yl)azetidin-3-yl acetate]

pIC50 (ATX enzyme): 7.60
Compound: CCc1nc2ccc(-c3cnc(CC(=O)N4CC[C@H](O)C4)cn3)cn2c1N(C)c1nc(-c2ccc(F)cc2)c(C#N)s1 [Example 11, (S)-2-((2-ethyl-6-(5-(2-(3-hydroxypyrrolidin-1-yl)-2-oxoethyl)pyrazin-2-yl)imidazo[1,2-a]pyridin-3-yl)(methyl)amino)-4-(4-fluorophenyl)thiazole-5-carbonitrile]

pIC50 (ATX enzyme): 7.35
Compound: CCc1nc2ccc(-c3cnc(N(C)S(C)(=O)=O)nc3)cn2c1N(CC)c1nc(-c2ccc(F)cc2)c(C#N)s1 [Example 20, N-(5-(3-((5-cyano-4-(4-fluorophenyl)thiazol-2-yl)(ethyl)amino)-2-ethylimidazo[1,2-a]pyridin-6-yl)pyrimidin-2-yl)-N-methylmethanesulfonamide]

pIC50 (ATX enzyme): 7.74
Compound: CCc1nc2ccc(-c3ncc(CC(=O)N4CC(O)C4)cc3F)cn2c1N(C)c1nc(-c2ccc(F)cc2)c(C#N)s1 [Example 10, 2-((2-ethyl-6-(3-fluoro-5-(2-(3-hydroxyazetidin-1-yl)-2-oxoethyl)pyridin-2-yl)imidazo[1,2-a]pyridin-3-yl)(methyl)amino)-4-(4-fluorophenyl)thiazole-5-carbonitrile]

pIC50 (ATX enzyme): 7.72
Compound: CCc1nc2ccc(-c3cnc(CC(=O)N4CC(CO)C4)cn3)cn2c1N(C)c1nc(-c2ccc(F)cc2)c(C#N)s1 [Example 12, 2-((2-ethyl-6-(5-(2-(3-(hydroxymethyl)azetidin-1-yl)-2-oxoethyl)pyrazin-2-yl)imidazo[1,2-a]pyridin-3-yl)(methyl)amino)-4-(4-fluorophenyl)thiazole-5-carbonitrile]

pIC50 (ATX enzyme): 7.52
Compound: CCc1nc2ccc(-c3ccc(CC(=O)N4CC(O)C4)cc3)cn2c1N(C)c1nc(-c2ccc(F)cc2)c(C#N)s1 [Example 1, 2-((2-ethyl-6-(4-(2-(3-hydroxyazetidin-1-yl)-2-oxoethyl)phenyl)imidazo[1,2-a]pyridin-3-yl)(methyl)amino)-4-(4-fluorophenyl)thiazole-5-carbonitrile]

pIC50 (ATX enzyme): 7.38
Compound: CCc1nc2ccc(-c3cnc(CC(=O)NCC4CCC(=O)N4)cn3)cn2c1N(C)c1nc(-c2ccc(F)cc2)c(C#N)s1 (stereo not shown) [Example 14, 2-(5-(3-((5-cyano-4-(4-fluorophenyl)thiazol-2-yl)(methyl)amino)-2-ethylimidazo[1,2-a]pyridin-6-yl)pyrazin-2-yl)-N-((5-oxopyrrolidin-2-yl)methyl)acetamide]

pIC50 (ATX enzyme): 7.54
Compound: CCc1nc2ccc(-c3ccc(CC(=O)N4CC(O)C4)nc3)cn2c1N(C)c1nc(-c2ccc(F)cc2)c(C#N)s1 [Example 2, 2-((2-ethyl-6-(6-(2-(3-hydroxyazetidin-1-yl)-2-oxoethyl)pyridin-3-yl)imidazo[1,2-a]pyridin-3-yl)(methyl)amino)-4-(4-fluorophenyl)thiazole-5-carbonitrile]

pIC50 (ATX enzyme): 7.40
Compound: CCc1nc2ccc(-c3cnc(C(=O)NC4CC5(CNC5)C4)cn3)cn2c1N(C)c1nc(-c2ccc(F)cc2)c(C#N)s1 [Example 15, 5-(3-((5-cyano-4-(4-fluorophenyl)thiazol-2-yl)(methyl)amino)-2-ethylimidazo[1,2-a]pyridin-6-yl)-N-(2-azaspiro[3.3]heptan-6-yl)pyrazin-2-carboxamide]

pIC50 (ATX enzyme): 7.60
Compound: CCc1nc2ccc(-c3ccc(CC(=O)N4CC(O)C4)cn3)cn2c1N(C)c1nc(-c2ccc(F)cc2)c(C#N)s1 [Example 7, 2-((2-ethyl-6-(5-(2-(3-hydroxyazetidin-1-yl)-2-oxoethyl)pyridin-2-yl)imidazo[1,2-a]pyridin-3-yl)(methyl)amino)-4-(4-fluorophenyl)thiazole-5-carbonitrile]

pIC50 (ATX enzyme): 7.82
Compound: CCc1nn2ccc(-c3cnc(N4CCCS4(=O)=O)nc3)nc2c1N(CC)c1nc(-c2ccc(F)cc2)c(C#N)s1 [Example 18, 2-((5-(2-(1,1-dioxidoisothiazolidin-2-yl)pyrimidin-5-yl)-2-ethyl-pyrazolo[1,5-a]pyrimidin-3-yl)(ethyl)amino)-4-(4-fluorophenyl)thiazole-5-carbonitrile]

pIC50 (ATX enzyme): 7.32
Compound: CCc1nc2ccc(-c3ccc(CC(=O)N4CC(O)C4)nn3)cn2c1N(C)c1nc(-c2ccc(F)cc2)c(C#N)s1 [Example 5, 2-((2-ethyl-6-(6-(2-(3-hydroxyazetidin-1-yl)-2-oxoethyl)pyridazin-3-yl)imidazo[1,2-a]pyridin-3-yl)(methyl)amino)-4-(4-fluorophenyl)thiazole-5-carbonitrile]

pIC50 (ATX enzyme): 7.77
Compound: CCc1nc2ccc(-c3cnc(N4CCCS4(=O)=O)cn3)cn2c1N(CC)c1nc(-c2ccc(F)cc2)c(C#N)s1 [Example 19, 2-((6-(5-(1,1-dioxidoisothiazolidin-2-yl)pyrazin-2-yl)-2-ethylimidazo[1,2-a]pyridin-3-yl)(ethyl)amino)-4-(4-fluorophenyl)thiazole-5-carbonitrile]

pIC50 (ATX enzyme): 8.28
Compound: CCc1nc2ccc(-c3cnc(CC(=O)N4CC(O)C4)c(F)c3)cn2c1N(C)c1nc(-c2ccc(F)cc2)c(C#N)s1 [Example 3, 2-((2-ethyl-6-(5-fluoro-6-(2-(3-hydroxyazetidin-1-yl)-2-oxoethyl)pyridin-3-yl)imidazo[1,2-a]pyridin-3-yl)(methyl)amino)-4-(4-fluorophenyl)thiazole-5-carbonitrile]

Cl_F_pred ([1]; IV 2 mg/kg): 7.5 mL/min/kg
Cl_F_pred ([1]; PO 10 mg/kg): 65.5 mL/min/kg
F ([1]; PO 10 mg/kg vs IV 2 mg/kg): 12%
AUC(0-inf) ([1]; SD, plasma, IV 2 mg/kg): 4460 ng·h/mL
AUC(0-t) ([1]; SD, plasma, IV 2 mg/kg): 4460 ng·h/mL
Cmax ([1]; SD, plasma, IV 2 mg/kg): 8340 ng/mL
half-life ([1]; SD, plasma, IV 2 mg/kg): 1.5 h
AUC(0-inf) ([1]; SD, plasma, PO 10 mg/kg): 2700 ng·h/mL
AUC(0-t) ([1]; SD, plasma, PO 10 mg/kg): 2680 ng·h/mL
Cmax ([1]; SD, plasma, PO 10 mg/kg): 512 ng/mL
Tmax ([1]; SD, plasma, PO 10 mg/kg): 1 h
half-life ([1]; SD, plasma, PO 10 mg/kg): 4 h
Compound: CCc1nc2c(C)cc(N3CCN(CC(=O)N4CC(O)C4)CC3)cn2c1N(C)c1nc(-c2ccc(F)cc2)c(C#N)s1 [GLPG1690]
% binuclear cells containing micronucleus ([2]; 3-hour administration with metabolic activation, 2 µg/ml): 1.55%
% binuclear cells containing micronucleus [2, 3]: 1.65%
% binuclear cells containing micronucleus ([2]; 3-hour administration with metabolic activation, 10 µg/ml): 1.70%
% binuclear cells containing micronucleus ([2]; 3-hour administration with metabolic activation, 30 µg/ml): 1.85%
% binuclear cells containing micronucleus ([2]; 3-hour administration without metabolic activation, 2 µg/ml): 1.90%
% binuclear cells containing micronucleus ([2]; 3-hour administration without metabolic activation, 5 µg/ml): 1.85%
% binuclear cells containing micronucleus ([2]; 3-hour administration without metabolic activation, 10 µg/ml): 1.65%
% binuclear cells containing micronucleus ([2]; 3-hour administration without metabolic activation, 30 µg/ml): 1.85%
% binuclear cells containing micronucleus ([2]; 24-hour administration without metabolic activation, 2 µg/ml): 1.95%
% binuclear cells containing micronucleus ([2]; 24-hour administration without metabolic activation, 4 µg/ml): 1.65%
% binuclear cells containing micronucleus ([2]; 24-hour administration without metabolic activation, 6 µg/ml): 1.60%
% binuclear cells containing micronucleus ([2]; 24-hour administration without metabolic activation, 7 µg/ml): 4.85%
% binuclear cells containing micronucleus ([2]; 24-hour administration without metabolic activation, 8 µg/ml): 14.4%
potential to induce micronucleus formation in CHO-WBL cells ([2]; overall verdict over all administration series): positive

Compound: O=P1(N(CCCl)CCCl)NCCCO1 (stereo not shown) [Cyclophosphamide monohydrate]
% binuclear cells containing micronucleus [2, 3]: 20.8%
